Data published in ChEMBL document CHEMBL1201862, “PubChem BioAssay data set” (2004).
Active and inactive are the calls of the source.

How the values were obtained:
[1] = biological target: T1, Heat shock factor protein 1 (Mus musculus, UniProt P38532); test: inhibition of MG132-induced HSE-luciferase signal, confirmation, cell-based, NIH3T3, luminescence, dose retest (AID 2382); format: functional;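 also: NIH3T3 fibroblasts with HSF1-driven luciferase reporter stressed by proteasome inhibitor MG132; luminescence from HSF1-driven luciferase expression after 8 hours of MG132 stress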
T1 sequence (P38532 whole entry): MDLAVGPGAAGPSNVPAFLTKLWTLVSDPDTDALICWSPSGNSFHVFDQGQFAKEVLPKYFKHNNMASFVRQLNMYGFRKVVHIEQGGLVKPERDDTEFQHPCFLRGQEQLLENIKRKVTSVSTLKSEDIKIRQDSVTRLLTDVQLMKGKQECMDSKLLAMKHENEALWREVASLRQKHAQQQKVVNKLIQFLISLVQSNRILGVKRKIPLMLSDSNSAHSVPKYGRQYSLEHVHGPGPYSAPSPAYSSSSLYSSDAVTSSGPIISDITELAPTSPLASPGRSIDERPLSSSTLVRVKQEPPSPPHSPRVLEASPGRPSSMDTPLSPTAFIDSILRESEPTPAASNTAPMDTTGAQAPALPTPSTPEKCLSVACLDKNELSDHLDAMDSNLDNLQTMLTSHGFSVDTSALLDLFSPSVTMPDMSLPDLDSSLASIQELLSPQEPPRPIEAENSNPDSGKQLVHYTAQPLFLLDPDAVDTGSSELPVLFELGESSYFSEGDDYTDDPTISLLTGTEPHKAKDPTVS

Cytochrome P450 2C9 = Cytochrome P450 2C9 (Homo sapiens, UniProt P11712)
Cytochrome P450 2C19 = Cytochrome P450 2C19 (Homo sapiens, UniProt P33261); test: Cytochrome panel assay with activity outcomes. Panel member name: p450-cyp2c19 Compounds with AC50 equal or less than 10 uM are considered active; format: functional
Cytochrome P450 2D6 = Cytochrome P450 2D6 (Homo sapiens, UniProt P10635);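 also: CYP2D6 member of a cytochrome P450 panel assay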
[2] = inhibitors of SNCA 5'UTR-driven reporter translation, confirmation, H4 neuroglioma cells, luminescence (AID 1988); format: functional, cell-based
[3] = Luminescence Cell-Based Dose Response HTS to Identify Inhibitors of 5'UTR Stem-Loop Driven Prion Protein mRNA Translation in H4 Neuroglioblastoma Cells. [Related pubchem assays: 1827 (Project Summary), 1813 (Primary HTS)]; format: functional
[4] = biological target: T2, Corticotropin-releasing factor receptor 2/Corticotropin-releasing factor-binding protein (Homo sapiens, UniProt P24387+Q13324); test: Dose Response confirmation of uHTS hits for small molecule antagonists of the CRF-binding protein and CRF-R2 receptor complex.; format: functional; details: read-out: IC50_Mean
T2 sequence (Q13324 whole entry): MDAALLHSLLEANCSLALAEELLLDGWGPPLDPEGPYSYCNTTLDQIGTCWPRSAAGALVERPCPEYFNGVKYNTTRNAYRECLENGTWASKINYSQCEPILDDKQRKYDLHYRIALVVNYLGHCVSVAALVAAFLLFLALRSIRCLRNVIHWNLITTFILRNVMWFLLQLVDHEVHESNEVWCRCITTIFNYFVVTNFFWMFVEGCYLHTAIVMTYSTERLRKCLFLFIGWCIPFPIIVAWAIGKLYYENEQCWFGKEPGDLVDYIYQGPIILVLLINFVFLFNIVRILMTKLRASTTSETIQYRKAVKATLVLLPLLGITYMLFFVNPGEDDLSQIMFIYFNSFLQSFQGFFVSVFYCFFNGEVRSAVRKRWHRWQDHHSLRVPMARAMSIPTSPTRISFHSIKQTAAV
T2 sequence (P24387 whole entry): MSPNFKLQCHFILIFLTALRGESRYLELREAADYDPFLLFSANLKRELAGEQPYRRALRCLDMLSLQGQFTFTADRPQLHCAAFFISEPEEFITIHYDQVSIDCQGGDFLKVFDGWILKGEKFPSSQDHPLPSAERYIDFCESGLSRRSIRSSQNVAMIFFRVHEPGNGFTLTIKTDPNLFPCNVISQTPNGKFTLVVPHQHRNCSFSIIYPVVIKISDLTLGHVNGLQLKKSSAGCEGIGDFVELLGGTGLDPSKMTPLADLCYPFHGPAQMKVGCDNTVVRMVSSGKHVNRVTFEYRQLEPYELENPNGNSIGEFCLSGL

[5] = biological target: T2, Corticotropin-releasing factor receptor 2/Corticotropin-releasing factor-binding protein; test: activators of CRF receptor 2 with binding protein – uHTS hits, confirmation (AID 602473); format: functional; details: read-out: EC50_Mean
[6] = inhibitors of firefly luciferase expression or activity, dose response, H4 neuroglioma cells, luminescence (AID 1990); format: functional, cell-based
Cytochrome P450 1A2 = biological target: T3, Cytochrome P450 1A2 (Homo sapiens, UniProt P05177);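 also: PubChem cytochrome P450 panel assay, CYP1A2 panel member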
T3 sequence (P05177 whole entry): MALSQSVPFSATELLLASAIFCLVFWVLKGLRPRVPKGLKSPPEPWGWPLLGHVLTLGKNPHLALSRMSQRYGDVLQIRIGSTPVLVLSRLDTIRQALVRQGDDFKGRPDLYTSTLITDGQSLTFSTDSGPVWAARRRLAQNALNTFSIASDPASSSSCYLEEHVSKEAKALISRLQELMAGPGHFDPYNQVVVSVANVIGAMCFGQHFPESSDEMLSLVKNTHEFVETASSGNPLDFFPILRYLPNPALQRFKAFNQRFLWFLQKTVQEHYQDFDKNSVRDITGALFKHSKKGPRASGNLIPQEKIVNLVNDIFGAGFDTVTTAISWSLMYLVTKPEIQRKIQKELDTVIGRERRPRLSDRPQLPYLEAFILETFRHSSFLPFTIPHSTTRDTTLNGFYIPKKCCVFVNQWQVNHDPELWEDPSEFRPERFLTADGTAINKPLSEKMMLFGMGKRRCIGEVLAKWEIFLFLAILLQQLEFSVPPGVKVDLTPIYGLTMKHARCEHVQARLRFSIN

Sequence of Cytochrome P450 2C19 (P33261 whole entry): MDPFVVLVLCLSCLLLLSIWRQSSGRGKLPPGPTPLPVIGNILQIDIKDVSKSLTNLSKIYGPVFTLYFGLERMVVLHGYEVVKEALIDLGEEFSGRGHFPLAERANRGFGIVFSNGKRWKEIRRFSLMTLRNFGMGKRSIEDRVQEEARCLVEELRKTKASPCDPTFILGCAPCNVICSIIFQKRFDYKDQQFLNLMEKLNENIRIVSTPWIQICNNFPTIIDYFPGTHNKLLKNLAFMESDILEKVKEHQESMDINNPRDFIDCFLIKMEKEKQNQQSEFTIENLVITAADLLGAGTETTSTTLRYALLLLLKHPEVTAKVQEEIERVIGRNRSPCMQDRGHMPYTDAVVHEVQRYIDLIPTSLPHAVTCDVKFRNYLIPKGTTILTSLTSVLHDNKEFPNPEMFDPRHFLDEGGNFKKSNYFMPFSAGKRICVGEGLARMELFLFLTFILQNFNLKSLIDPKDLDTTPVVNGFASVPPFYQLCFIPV
Sequence of Cytochrome P450 2D6 (P10635 whole entry): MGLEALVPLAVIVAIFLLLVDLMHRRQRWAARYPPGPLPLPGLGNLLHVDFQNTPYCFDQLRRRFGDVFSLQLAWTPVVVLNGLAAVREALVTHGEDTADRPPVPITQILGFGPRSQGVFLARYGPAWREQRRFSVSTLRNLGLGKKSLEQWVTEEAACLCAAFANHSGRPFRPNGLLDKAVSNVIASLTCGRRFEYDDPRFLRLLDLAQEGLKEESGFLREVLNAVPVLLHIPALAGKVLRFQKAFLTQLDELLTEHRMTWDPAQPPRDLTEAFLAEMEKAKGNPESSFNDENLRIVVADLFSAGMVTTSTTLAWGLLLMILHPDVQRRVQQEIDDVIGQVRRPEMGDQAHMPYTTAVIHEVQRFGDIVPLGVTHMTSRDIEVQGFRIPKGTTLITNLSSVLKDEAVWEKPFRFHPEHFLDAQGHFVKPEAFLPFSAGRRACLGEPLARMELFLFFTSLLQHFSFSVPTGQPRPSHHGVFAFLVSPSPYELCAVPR
Sequence of Cytochrome P450 2C9 (P11712 whole entry): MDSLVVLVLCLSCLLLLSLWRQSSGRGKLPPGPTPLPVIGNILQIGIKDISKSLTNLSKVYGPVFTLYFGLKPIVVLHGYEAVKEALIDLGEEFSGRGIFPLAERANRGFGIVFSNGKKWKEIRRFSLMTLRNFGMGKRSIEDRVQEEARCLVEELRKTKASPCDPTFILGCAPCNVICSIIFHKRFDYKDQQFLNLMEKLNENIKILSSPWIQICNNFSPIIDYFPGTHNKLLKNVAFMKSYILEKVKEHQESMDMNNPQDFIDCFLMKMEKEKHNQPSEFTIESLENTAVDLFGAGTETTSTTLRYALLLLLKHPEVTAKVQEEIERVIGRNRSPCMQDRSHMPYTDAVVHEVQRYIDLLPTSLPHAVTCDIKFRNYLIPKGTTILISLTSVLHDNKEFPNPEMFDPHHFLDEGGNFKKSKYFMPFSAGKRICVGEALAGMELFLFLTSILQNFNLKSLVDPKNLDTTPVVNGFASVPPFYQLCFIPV

## CC(C)(C)OC(=O)COc1cc(O)c2c(=O)cc(-c3ccccc3)oc2c1
[1]
  EC50: > 195 µM (not active)

## O=c1[nH][nH]c(=S)c(=O)[nH]1
Cytochrome P450 2C9
  AC50: 2.51 µM (inconclusive)
Cytochrome P450 2C19; read-out: AC50
  AC50: 2 µM (inconclusive)

## Nc1nc(OCc2ccccc2)c2[nH]cnc2n1 [6-O-BENZYLGUANINE]
Cytochrome P450 2C9
  AC50: 39.8 µM (inconclusive)
Cytochrome P450 2D6
  AC50: 0.501 µM (inconclusive)

## Cc1ccc2c(COC(=O)C3=COCCO3)cc(=O)oc2c1
[2]
  EC50: 8.1 µM (inconclusive)
[3]
  EC50: 10.5 µM (active)

## Cn1c(SCC(=O)NCc2ccccc2)nc2ccccc21
[1]
  EC50: > 195 µM (not active)

## Fc1ccccc1CCNCc1cccc(Cl)c1Cl
Cytochrome P450 2C9
  AC50: 39.8 µM (inconclusive)

## CCCCc1nc2ccccc2c(NC(=O)CN(CC)CC)c1CCC
[4]
  IC50: > 47.1 µM (inactive)
[5]
  EC50: > 53 µM (inactive)

## O=C(CSCC(=O)Nc1cccc([N+](=O)[O-])c1)Nc1ccccc1
[4]
  IC50: > 47.1 µM (inactive)
[5]
  EC50: > 53 µM (inactive)

## COc1ccc(-c2nc(CNS(=O)(=O)c3ccc(OC)c(OC)c3)cs2)cc1
[1]
  EC50: > 195 µM (not active)

## CCC(=O)Nc1ccc(NC(=O)Cc2ccccc2)cn1
[1]
  EC50: > 195 µM (not active)

## COc1ccc(-c2[nH]ncc2CN2CCC(O)(c3ccc(Cl)cc3)CC2)cc1
[6]
  EC50: 18.2 µM (active)
[2]
  EC50: 9.96 µM (active)

## O=C(C1CC(=O)N(c2ccc(Br)cc2)C1)N1CCCC1 (configuration not stated)
[4]
  IC50: > 47.1 µM (inactive)
[5]
  EC50: > 53 µM (inactive)

## COc1ccc(NC(=O)CSc2nc(C)cs2)cc1
[1]
  EC50: > 195 µM (not active)

## C=C(C)Cn1c(=O)c2c(nc3n2CC(C)CN3Cc2ccccc2)n(C)c1=O (configuration not stated)
[4]
  IC50: > 47.1 µM (inactive)
[5]
  EC50: > 53 µM (inactive)

## COc1cccc(-c2cc(C(F)(F)F)nc(-n3cc(Cl)cn3)n2)c1
[6]
  EC50: > 120 µM (not active)
[2]
  EC50: > 120 µM (not active)
[3]
  EC50: > 120 µM (not active)

## CC1(C)N(O)C(c2ccc(C(=O)O)cc2)=[N+]([O-])C1(C)C
Cytochrome P450 1A2
  AC50: 31.6 µM (inconclusive)

## COc1ccc(NC(=O)C2CCN(C(=O)Nc3ccc(C)cc3)CC2)cc1OC
[6]
  EC50: > 120 µM (not active)
[2]
  EC50: > 120 µM (not active)
[3]
  EC50: > 120 µM (not active)

## N#Cc1nc(-c2ccco2)oc1N1CCN(Cc2ccccc2)CC1
[1]
  EC50: > 195 µM (not active)

## O=C1OC(N2CCN(C/C=C/c3ccccc3)CC2)c2ccccc21 (configuration not stated)
[1]
  EC50: > 195 µM (not active)

## COC(=O)CCCC1=CC2=C(c3ccccc3)C(=O)C(C)(OC(=O)C3CCCC3)C(=O)C2=CN1CCc1ccccn1 (configuration not stated)
[4]
  IC50: > 47.1 µM (inactive)
[5]
  EC50: > 53 µM (inactive)

## CCn1c(C(=O)NC(C)c2ccc3c(c2)OCCO3)cc2sccc21 (configuration not stated)
[6]
  EC50: 14.2 µM (active)
[2]
  EC50: 22.5 µM (active)
[3]
  EC50: 15.8 µM (active)

## CCCn1c(C(C)NS(=O)(=O)c2ccccc2)n[nH]c1=S (configuration not stated)
[4]
  IC50: > 47.1 µM (inactive)
[5]
  EC50: > 53 µM (inactive)

## O=C(OCC(=O)N1CCN(C(=O)c2ccco2)CC1)c1sc2cc(F)ccc2c1Cl
[1]
  EC50: > 195 µM (not active)

## Cc1ccc(NC(=O)NCC(c2cccnc2)N2CCOCC2)cc1 (configuration not stated)
[1]
  EC50: > 195 µM (not active)

## Oc1ccc2ccccc2c1CN(Cc1c(O)ccc2ccccc12)C1CCCCC1
Cytochrome P450 2C9
  AC50: 7.94 µM (inconclusive)

## O=C(OCc1cc(=O)n2ccsc2n1)C1(c2ccccc2)CC1
[4]
  IC50: > 47.1 µM (inactive)
[5]
  EC50: > 53 µM (inactive)

## O=S(=O)(c1ccc2c(c1)OCCO2)N1CCC(c2nc(O)c3nnn(Cc4ccccc4F)c3n2)CC1
[6]
  EC50: > 120 µM (not active)
[2]
  EC50: > 120 µM (not active)
[3]
  EC50: > 120 µM (not active)

## Nc1nc(O)c(Br)c(Oc2ccc(F)cc2)n1
[1]
  EC50: 35.4 µM (active)

## O=C(c1ccc(F)cc1)N1CCCC(N2CCN(Cc3ccc4c(c3)OCO4)CC2)C1 (configuration not stated)
[1]
  EC50: > 195 µM (not active)

## CCCCCCCCCSc1nnc(N)[nH]1
[4]
  IC50: > 47.1 µM (inactive)
[5]
  EC50: > 53 µM (inactive)

## O=C(N/N=C/c1cc([N+](=O)[O-])ccc1Cl)c1cnccn1
[6]
  EC50: > 120 µM (not active)
[2]
  EC50: > 120 µM (not active)
[3]
  EC50: 9.8 µM (active)

## Cc1ccc(NC(=O)CCC(=O)NNC(=O)c2ccco2)cc1C
Cytochrome P450 2C9
  AC50: 12.6 µM (inconclusive)
Cytochrome P450 2C19; read-out: AC50
  AC50: 17.8 µM (inconclusive)

## C=CCOC(=O)C(C#N)c1nc2ccccc2nc1N1CCN(c2ccccc2OCC)CC1 (configuration not stated)
[4]
  IC50: > 47.1 µM (inactive)
[5]
  EC50: > 53 µM (inactive)

## FC(F)(F)c1cc(Sc2ccccc2)nc(-c2ccccn2)n1
Cytochrome P450 2C9
  AC50: 14.1 µM (inconclusive)
Cytochrome P450 2D6
  AC50: 11.2 µM (inconclusive)

## Fc1ccccc1CNC(=S)Nc1ccc(Cl)cc1
[4]
  IC50: 5.53 µM (active)
[5]
  EC50: > 53 µM (inactive)

## CC(=O)Nc1nonc1NC(=O)c1ccc(C(C)(C)C)cc1
Cytochrome P450 2C9
  AC50: 3.55 µM (inconclusive)
Cytochrome P450 2C19; read-out: AC50
  AC50: 3.55 µM (inconclusive)

## NS(=O)(=O)c1ccc(CCNC(=O)C2CCCN2C(=O)OCc2ccccc2)cc1 (configuration not stated)
Cytochrome P450 2C9
  AC50: 15.8 µM (inconclusive)
Cytochrome P450 2C19
  AC50: inconclusive

## COc1cccc(COC(=O)c2ccc3c(c2)NC(=O)C(C)S3)c1OC (configuration not stated)
[1]
  EC50: > 195 µM (not active)

## CNCC/C=C\c1cccnc1
Cytochrome P450 2C9
  AC50: 39.8 µM (inconclusive)
Cytochrome P450 2D6
  AC50: 15.8 µM (inconclusive)
Cytochrome P450 2C19; read-out: AC50
  AC50: 20 µM (inconclusive)

## COc1ccc(-n2nc(C(=O)NCC(=O)Nc3ccccn3)c3ccccc3c2=O)cc1
Cytochrome P450 2C9
  AC50: 1.41 µM (inconclusive)
Cytochrome P450 2C19; read-out: AC50
  AC50: 3.16 µM (inconclusive)

## COc1cccc(N2CCN(S(=O)(=O)c3c(C)[nH]c(C)c3C(=O)N3CCCC3)CC2)c1
[4]
  IC50: > 47.1 µM (inactive)
[5]
  EC50: > 53 µM (inactive)

## CC(C)Cc1nc2n[nH]c(N)c2c2c1COC(C)(C)C2
[6]
  EC50: 38.2 µM (active)
[2]
  EC50: 21.4 µM (active)
[3]
  EC50: > 120 µM (not active)

## O=C(N/N=C/c1cccnc1)c1ccc2c(c1)OCCO2
[1]
  EC50: > 195 µM (not active)

## O=C(c1nc2nc(-c3ccc(Cl)cc3)cc(C(F)(F)F)n2n1)N1CCOCC1
[6]
  EC50: 14 µM (active)
[2]
  EC50: 15.9 µM (active)
[3]
  EC50: 54.3 µM (active)

## CCN1C(c2ccccc2)C(C)C(=O)C(C)C1c1ccccc1 (configuration not stated)
[4]
  IC50: > 47.1 µM (inactive)
[5]
  EC50: > 53 µM (inactive)

## C1=C(c2cccc3ccccc23)N2CCN=C2S1
[6]
  EC50: > 120 µM (not active)
[2]
  EC50: > 120 µM (not active)
[3]
  EC50: > 120 µM (not active)

## CCOC(=O)c1ccc(NC(=O)NS(=O)(=O)c2ccc(C)cc2)cc1
[1]
  EC50: > 195 µM (not active)

## CC(C)[C@H](CO)Nc1nc(Nc2cccc(Cl)c2)c2ncn(C(C)C)c2n1 [PURVALANOLA]
Cytochrome P450 2C9
  AC50: 39.8 µM (inconclusive)
